Results published in patent US7893256B2, “Azabicycloalkane compounds” (Theravance, Inc., priority 2003, dated 2011).

Biological target: T1, M3 muscarinic receptor (hM3) (Homo sapiens, UniProt P20309)
T1 construct: expressed in transfected cells; membranes
Experiment: Radioligand binding assay for muscarinic receptors (Assay Test Procedure B)
Conditions: radioligand displacement, CHO cell membranes, [3H]-NMS
Description: CHO cell lines stably expressing cloned human hM1, hM2, hM3 and hM4 muscarinic receptor subtypes, respectively, were grown to near confluency in HAM's F-12 media supplemented with 10% FBS and 250 μg/mL Geneticin. The cells were grown in a 5% CO2, 37° C. incubator and lifted with 2 mM EDTA in dPBS. Cells were collected by 5 minute centrifugation at 650×g, and cell pellets were either stored frozen at −80° C. or membranes were prepared immediately for use. For membrane preparation, cell pellets were resuspended in lysis buffer and homogenized with a Polytron PT-2100 tissue disrupter (Kinematica AG; 20 seconds×2 bursts). Crude membranes were centrifuged at 40,000×g for 15 minutes at 4° C. […] The protein concentration of the membrane suspension was determined by the method described in Lowry et al., 1951, Journal of Biochemistry, 193, 265. […]
Radioligand binding assays for cloned human muscarinic receptors were performed in 96-well microtiter plates in a total assay volume of 100 μL. […] Filter plates were rinsed three times with wash buffer (10 mM HEPES) to remove unbound radioactivity. […] The plates were then counted in a PerkinElmer Topcount liquid scintillation counter (PerkinElmer Inc., Wellesley, Mass.). Binding data were analyzed by nonlinear regression analysis with the GraphPad Prism Software package (GraphPad Software, Inc., San Diego, Calif.) using the one-site competition model. […]

T1 sequence (P20309 whole entry): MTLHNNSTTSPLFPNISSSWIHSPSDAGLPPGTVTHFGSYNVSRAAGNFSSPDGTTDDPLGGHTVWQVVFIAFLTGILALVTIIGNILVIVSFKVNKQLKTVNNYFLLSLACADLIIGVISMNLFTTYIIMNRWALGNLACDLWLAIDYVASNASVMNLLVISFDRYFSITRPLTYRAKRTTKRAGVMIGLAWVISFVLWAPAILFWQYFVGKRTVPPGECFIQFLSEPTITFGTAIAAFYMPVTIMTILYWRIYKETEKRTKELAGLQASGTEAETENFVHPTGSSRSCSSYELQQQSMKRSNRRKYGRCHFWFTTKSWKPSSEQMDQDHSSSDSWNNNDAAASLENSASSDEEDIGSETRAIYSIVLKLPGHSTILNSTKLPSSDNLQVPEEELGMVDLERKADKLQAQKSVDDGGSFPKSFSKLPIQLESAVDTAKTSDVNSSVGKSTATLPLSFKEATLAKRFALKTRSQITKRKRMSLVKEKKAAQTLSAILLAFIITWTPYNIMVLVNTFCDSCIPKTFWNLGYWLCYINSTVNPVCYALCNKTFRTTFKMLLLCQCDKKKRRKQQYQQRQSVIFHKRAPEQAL

**Q.** How did the Ki turn out when C[N+]1(CCCCCCCCCNC[C@H](O)c2ccc(O)c3[nH]c(=O)ccc23)C2CC(OC(=O)C(O)(c3cccs3)c3cccs3)CC1C1OC12.C[N+]1(CCCCCCCCCNC[C@H](O)c2ccc(O)c3[nH]c(=O)ccc23)C2CC(OC(=O)C(O)(c3cccs3)c3cccs3)CC1C1OC12.O=C([O-])C(F)(F)F.O=C([O-])C(F)(F)F (stereo partly drawn) [Example 1, 7-(2-Hydroxy-2,2-dithiophen-2-ylacetoxy)-9-{9-[(R)-2-hydroxy-2-(8-hydroxy-2-oxo-1,2-dihydroquinolin-5-yl)ethylamino]nonyl}-9-methyl-3-oxa-9-azonia-tricyclo[3.3.1.0^2,4]nonane Ditrifluoroacetate] was run?
**A.** Its Ki is less than 50 nM.
